Measurements taken from patent US4518413A, “Poly-phosphorodiamide urease inhibitors and urease inhibited urea based fertilizer compositions” (Allied Corporation, priority 1983, dated 1985).

The compounds below were run on soil urease (assay: Efficacy test: inhibition of urease-catalysed urea hydrolysis in soil (urea remaining after incubation)). Settings: New York soil (Cazenovia silt loam, pH 7.2); 800 micrograms test compound and 42.8 mg urea per 20 g air-dry soil; incubated at 25° C. for three days; run in triplicate.
Assay type: biochemical
Description: Efficacy tests were conducted to evaluate the efficacy of certain representative poly-phosphorodiamide compounds as urease inhibitors. The inhibition tests were run in a New York soil (Cazenovia silt loam, pH 7.2). Evaluations (run in triplicate) consisted of applying 800 micrograms of the test compound in 5 mL of water and 42.8 mg of urea in 1 mL of water to 20 g of air-dry soil in a glass bottle. The bottle was capped with perforated aluminum foil and incubated at 25° C. for three days prior to extraction with 100 mL of a 2M KCl solution containing 0.5 mg of phenylmercuric acetate. The extracts were then analyzed for remaining urea using an autoanalyzer. Percent inhibition was calculated as [formula] where A is urea recovered from unincubated sample (urea added to soil and immediately extracted); B is urea recovered from inhibited sample; and C is urea recovered from the control (uninhibited sample).

Question: How did the “% Inhibition” value turn out when `NP(N)(=O)NCCCCCCNP(N)(N)=O` [N,N'-Bis-(diaminophosphinyl)-1,6-diaminohexane] was run?
Answer: 86%

Question: With `CC1(NP(N)(N)=O)CCC(C(C)(C)NP(N)(N)=O)CC1` (stereo not drawn) [N,N'-Bis-(diaminophosphinyl)-1,8-diamino-p-menthane] as the compound, how does the “% Inhibition” value read?
Answer: 84%

Question: Which “% Inhibition” value does the source give for `NP(N)(=O)N1CCN(P(N)(N)=O)CC1` [N,N'Bis-diaminophosphinyl-piperazine, N,N'-Bis-(diaminophosphinyl)piperazine] here?
Answer: 76%

Question: How did the “% Inhibition” value turn out when `NP(N)(=O)Oc1cccc(OP(N)(N)=O)c1` [Phosphorodiamidic Acid 1,3-Phenylene Ester] was run?
Answer: 81%

Question: For `NP(N)(=O)Oc1ccc(OP(N)(N)=O)cc1` [Phosphorodiamidic Acid 1,4-Phenylene Ester], which “% Inhibition” value is on record?
Answer: 90%

Question: With `CC(C)(c1ccc(OP(N)(N)=O)cc1)c1ccc(OP(N)(N)=O)cc1` [Phosphorodiamidic Acid (1-Methylethylidene)-di-4,1-PhenyleneEster] as the compound, how does the “% Inhibition” value read?
Answer: 70%
